Experimental data from PMC11356900, “Synthesis, Structural Properties and Biological Activities of Novel Hydrazones of 2-, 3-, 4-Iodobenzoic Acid” (Molecules, 2024).
Values after ≈ are worked out from the molar mass of the structure shown. Read-outs that look alike come from different tables or passages of the source.

How the values were obtained:
[1] = system: Escherichia coli ATCC 25922; assay: Broth microdilution MIC/MBC; conditions: ATCC25922
[2] = system: Micrococcus luteus ATCC 10240; assay: Broth microdilution MIC/MBC; conditions: Micrococcus luteus, ATCC10240
[3] = system: Candida parapsilosis ATCC 22019; assay: Broth microdilution MIC/MFC; type: cell-based; conditions: Lodderomyces parapsilosis; for MIC: ATCC22019, read-out: MIC
Source text: (§1) Procedures of in vitro antimicrobial assays are described in Supplementary Materials.
(§2) 2. Microbiology – in vitro antimicrobial activity assays […]
(§3) using the broth microdilution method according to the European Committee on Antimicrobial Susceptibility Testing (EUCAST) and Clinical and Laboratory Standards Institute guidelines against a panel of reference and clinical or saprophytic strains of mi croorganisms, including the Gram-positive bacteria: Staphylococcus aureus ATCC 43300 (Methi-cillin Resistant S. aureus – MRSA), Staphylococcus aureus ATCC 29213 (Methicillin Susceptible S. aureus – MSSA), Staph-ylococcus epidermidis ATCC 12228, Micrococcus luteus ATCC 10240, Bacillus subtilis ATCC 6633 and Bacillus cereus ATCC 10876), Gram-negative bacteria: Bordetella bronchiseptica ATCC 4617, Escherichia coli ATCC 25922, Klebsiella pneumoniae ATCC 13883, Proteus mirabilis ATCC 12453, Salmonella typhimurium ATCC 14028 and Pseudomonas aeruginosa ATCC 9027, and fungi belonging to yeasts: Candida albicans ATCC 10231, Candida albicans ATCC 2091, Candida parapsilosis ATCC 22019, Candida glabrata ATCC 90030 and Candida krusei ATCC 14243. The microorganisms belonging to ATCC originated from American Type Culture Collection, routinely used for the evaluation of antimicrobials. All the used microbial cultures were first subcultured on nutrient agar or Sabouraud agar at 35°C for 18-24 h or 30°C for 24-48 h for bacteria […]
(§4) The surface of Mueller-Hinton agar (for bacteria) and RPMI 1640 with MOPS (for fungi) were inoculated with the suspensions of bacterial or fungal species. Microbial suspensions were prepared in sterile saline with an optical density of McFarland standard scale 0.5. The samples containing the compounds were dissolved in dimethyl sulfoxide (DMSO).
(§5) Furthermore, the bacterial and fungal suspensions put onto the Petri dishes with solid media containing 2 mg/mL of the tested compounds followed were incubated at 37°C for 24h and 30°C for 48h for bacteria and fungi, respectively.
(§6) The inhibition of microbial growth was estimated comparing with a control culture prepared without any tested sam- […]
(§7) antifungal compounds, respectively.
(§8) Subsequently, MIC (Minimal Inhibitory Concentration) of the compounds was examined by the microdilution broth method, using their two-fold dilutions in Mueller-Hinton broth (for bacteria) and RPMI 1640 broth with MOPS (for fungi) prepared in the 96-well polystyrene plates. The final concentrations of the compounds ranged from 1000 to 0.488 µg/mL. Microbial suspensions were prepared in 0.85% NaCl with an optical density of 0.5 McFarland standard. Next each bacterial or fungal suspension was added per each well containing broth and various concentrations of the exam-ined compounds. After incubation, the MIC was assessed spectrophotometrically as the lowest concentration of the […]
(§9) Appropriate DMSO, growth and sterile controls were carried out. The medium with no tested substances was used as a control The MBC (Minimal Bactericidal Concentration) and MFC (Minimal Fungicidal Concentration) are defined as the lowest concentration of the compounds that is required to kill a particular bacterial or fungal species. The MBC/MFC was determined by removing the culture used for the MIC determination from each well and spotted onto the appro-priate agar medium. The plates were incubated under appropriate conditions for bacteria and fungi. The lowest com-pounds concentration with no visible growth observed was assessed as a bactericidal/fungicidal concentration. All the experiments were repeated three times and the representative data are presented.
(§10) 1. European Committee for Antimicrobial Susceptibility Testing (EUCAST) Determination of minimum inhibitory con-centrations (MICs) of antibacterial agents by broth dilution. EUCAST discussion document E. Dis 5.1. Clin. Microbiol.
(§11) 2. Clinical and Laboratory Standards Institute. Reference method for broth dilution antifungal susceptibility testing of […]

[4] = system: Candida albicans ATCC 10231; assay: Broth microdilution MIC/MFC; type: cell-based; conditions: ATCC10231, read-out: MIC
Source text: as §1, §2, §3, §4, §5, §6, §7, §8, §9, §10, §11

[5] = system: Candida glabrata ATCC 90030; assay: Broth microdilution MIC/MFC; type: cell-based; conditions: Nakaseomyces glabratus, ATCC90030, read-out: MIC
Source text: as §1, §2, §3, §4, §5, §6, §7, §8, §9, §10, §11

[6] = system: Candida krusei ATCC 14243; assay: Broth microdilution MIC/MFC; type: cell-based; conditions: Pichia kudriavzevii, ATCC14243, read-out: MIC
Source text: as §1, §2, §3, §4, §5, §6, §7, §8, §9, §10, §11

[7] = system: Candida albicans ATCC 2091; assay: Broth microdilution MIC/MFC; type: cell-based; conditions: ATCC2091, read-out: MIC
Source text: as §1, §2, §3, §4, §5, §6, §7, §8, §9, §10, §11

[8] = system: Bordetella bronchiseptica ATCC 4617; assay: Broth microdilution MIC/MBC; conditions: ATCC4617
Gram-positive bacteria = assay: Broth microdilution, summary over reference Gram-positive bacteria; type: cell-based
Source text: as §1, §2, §3, §4, §5, §6, §7, §8, §9, §10, §11

[9] = system: Proteus mirabilis ATCC 12453; assay: Broth microdilution MIC/MBC; conditions: ATCC12453
[10] = system: Pseudomonas aeruginosa ATCC 9027; assay: Broth microdilution MIC/MBC; conditions: ATCC9027
[11] = system: Bacillus cereus ATCC 10876; assay: Broth microdilution MIC/MBC; conditions: Bacillus cereus, ATCC10876
[12] = system: Staphylococcus aureus ATCC 29213; assay: Broth microdilution MIC/MBC; conditions: ATCC29213
[13] = system: Staphylococcus epidermidis ATCC 12228; assay: Broth microdilution MIC/MBC; conditions: ATCC12228
[14] = system: Salmonella typhimurium ATCC 14028; assay: Broth microdilution MIC/MBC; conditions: Salmonella enterica
[15] = system: Staphylococcus aureus ATCC 25923; assay: Broth microdilution MIC/MBC; conditions: Staphylococcus aureus, ATCC25923
[16] = system: Staphylococcus aureus ATCC 43300; assay: Broth microdilution MIC/MBC; conditions: ATCC43300 / MRSA
[17] = system: Klebsiella pneumoniae ATCC 13883; assay: Broth microdilution MIC/MBC; conditions: ATCC13883
[18] = system: Bacillus subtilis ATCC 6633; assay: Broth microdilution MIC/MBC; conditions: ATCC6633

SMILES	MIC [1]	MBC [2]	MIC [2]	MIC [3]	MIC [4]	MIC [5]	MIC [6]	MIC [7]	MIC [8]	MIC [9]	melting point	MIC [10]	MIC [11]	MIC [12]	MBC [13]	MIC [13]	MIC [14]	MIC [15]	MIC [16]	MIC [17]	other results
O=C(N/N=C/c1cc(Cl)cc(Cl)c1O)c1cccc(I)c1 [Compound 17, N-[(3,5-dichloro-2-hydroxyphenyl)methylidene]-3-iodobenzohydrazide]	> 1000 µg/mL	15.6 µg/mL (≈ 35.9 µM)	15.6 µg/mL (≈ 35.9 µM)	> 1000 µg/mL	> 1000 µg/mL	> 1000 µg/mL	> 1000 µg/mL	> 1000 µg/mL	> 1000 µg/mL	> 1000 µg/mL	210 to 212 °C	> 1000 µg/mL	15.6 µg/mL (≈ 35.9 µM)	15.6 µg/mL (≈ 35.9 µM)	62.5 µg/mL (≈ 144 µM)	15.6 µg/mL (≈ 35.9 µM)	> 1000 µg/mL	31.2 µg/mL (≈ 71.8 µM)	15.6 µg/mL (≈ 35.9 µM)	> 1000 µg/mL	MIC (Gram-positive bacteria): 7.81 to 31.2 µg/mL (≈ 18 to 71.8 µM); MBC [11]: 15.6 µg/mL (≈ 35.9 µM); MBC [12]: 15.6 µg/mL (≈ 35.9 µM); MBC [15]: 31.2 µg/mL (≈ 71.8 µM); MBC [16]: 15.6 µg/mL (≈ 35.9 µM); MBC [18]: 15.6 µg/mL (≈ 35.9 µM); MIC [18]: 7.81 µg/mL (≈ 18 µM)
NNC(=O)c1cccc(I)c1 [Compound 5, 3-iodobenzohydrazide]	> 1000 µg/mL	> 1000 µg/mL	1000 µg/mL (≈ 3820 µM)	> 1000 µg/mL	> 1000 µg/mL	> 1000 µg/mL	> 1000 µg/mL	> 1000 µg/mL	> 1000 µg/mL	> 1000 µg/mL	134 to 140 °C	> 1000 µg/mL	> 1000 µg/mL	> 1000 µg/mL	> 1000 µg/mL	1000 µg/mL (≈ 3820 µM)	> 1000 µg/mL	> 1000 µg/mL	> 1000 µg/mL	> 1000 µg/mL	MIC (Gram-positive bacteria): 31.2 to 1000 µg/mL (≈ 119 to 3820 µM); MBC [18]: > 1000 µg/mL; MIC [18]: 1000 µg/mL (≈ 3820 µM)
CCOc1cccc(/C=N/NC(=O)c2cccc(I)c2)c1O [Compound 18, N-[(3-ethoxy-2-hydroxyphenyl)methylidene]-3-iodobenzohydrazide]	> 1000 µg/mL	250 µg/mL (≈ 609 µM)	31.2 µg/mL (≈ 76.2 µM)	> 1000 µg/mL	> 1000 µg/mL	> 1000 µg/mL	> 1000 µg/mL	> 1000 µg/mL	> 1000 µg/mL	> 1000 µg/mL	115 to 121 °C	> 1000 µg/mL	> 1000 µg/mL	> 1000 µg/mL	> 1000 µg/mL	500 µg/mL (≈ 1220 µM)	> 1000 µg/mL	> 1000 µg/mL	> 1000 µg/mL	> 1000 µg/mL	MIC (Gram-positive bacteria): 31.2 to 1000 µg/mL (≈ 76.2 to 2440 µM); MBC [18]: > 1000 µg/mL; MIC [18]: 62.5 µg/mL (≈ 152 µM)
O=C(N/N=C/c1cccc([N+](=O)[O-])c1O)c1cccc(I)c1 [Compound 15, N-[(2-hydroxy-3-nitrophenyl)methylidene]-3-iodobenzohydrazide]	> 1000 µg/mL	125 µg/mL (≈ 304 µM)	31.2 µg/mL (≈ 76 µM)	> 1000 µg/mL	> 1000 µg/mL	> 1000 µg/mL	> 1000 µg/mL	> 1000 µg/mL	> 1000 µg/mL	> 1000 µg/mL	190 to 199 °C	> 1000 µg/mL	125 µg/mL (≈ 304 µM)	250 µg/mL (≈ 608 µM)	125 µg/mL (≈ 304 µM)	31.2 µg/mL (≈ 76 µM)	> 1000 µg/mL	250 µg/mL (≈ 608 µM)	1000 µg/mL (≈ 2430 µM)	> 1000 µg/mL	MIC (Gram-positive bacteria): 31.2 to 500 µg/mL (≈ 76 to 1220 µM); MBC [11]: 250 µg/mL (≈ 608 µM); MBC [12]: > 1000 µg/mL; MBC [15]: > 1000 µg/mL; MBC [16]: > 1000 µg/mL; MBC [18]: 500 µg/mL (≈ 1220 µM); MIC [18]: 125 µg/mL (≈ 304 µM)
O=C(N/N=C/c1ccccc1O)c1ccc(I)cc1 [Compound 23, N-[(2-hydroxyphenyl)methylidene]-4-iodobenzohydrazide]	> 1000 µg/mL	> 1000 µg/mL	500 µg/mL (≈ 1370 µM)	1000 µg/mL (≈ 2730 µM)	> 1000 µg/mL	> 1000 µg/mL	> 1000 µg/mL	> 1000 µg/mL	> 1000 µg/mL	> 1000 µg/mL	195 to 205 °C	> 1000 µg/mL	1000 µg/mL (≈ 2730 µM)	500 µg/mL (≈ 1370 µM)	> 1000 µg/mL	1000 µg/mL (≈ 2730 µM)	> 1000 µg/mL	1000 µg/mL (≈ 2730 µM)	500 µg/mL (≈ 1370 µM)	> 1000 µg/mL	MFC ([3]; ATCC22019, read-out: MFC): > 1000 µg/mL; MBC (Gram-positive bacteria; range over the reference Gram-positive bacteria, read-out: MBC): > 1000 µg/mL; MIC (Gram-positive bacteria; range over the reference Gram-positive bacteria, read-out: MIC): 500 to 1000 µg/mL (≈ 1370 to 2730 µM); antibacterial activity in words (Gram-positive bacteria; reference Gram-positive bacteria / studied bacteria): moderate or mild; MBC [11]: > 1000 µg/mL; MBC [12]: > 1000 µg/mL; MBC [15]: > 1000 µg/mL; MBC [16]: > 1000 µg/mL; MBC [18]: > 1000 µg/mL; MIC [18]: 1000 µg/mL (≈ 2730 µM)
